Molecules are shown by their SMILES.

These results are taken from patent publication CN115504972A, “异恶唑类衍生物、其制备方法及其作为药物的用途” (Guangdong Pharmaceutical University, priority 2021, dated 2022).

One data set deals with T1, FXR receptor (FXR受体) (Homo sapiens, UniProt Q96RI1).
T1 sequence (Q96RI1 1-486): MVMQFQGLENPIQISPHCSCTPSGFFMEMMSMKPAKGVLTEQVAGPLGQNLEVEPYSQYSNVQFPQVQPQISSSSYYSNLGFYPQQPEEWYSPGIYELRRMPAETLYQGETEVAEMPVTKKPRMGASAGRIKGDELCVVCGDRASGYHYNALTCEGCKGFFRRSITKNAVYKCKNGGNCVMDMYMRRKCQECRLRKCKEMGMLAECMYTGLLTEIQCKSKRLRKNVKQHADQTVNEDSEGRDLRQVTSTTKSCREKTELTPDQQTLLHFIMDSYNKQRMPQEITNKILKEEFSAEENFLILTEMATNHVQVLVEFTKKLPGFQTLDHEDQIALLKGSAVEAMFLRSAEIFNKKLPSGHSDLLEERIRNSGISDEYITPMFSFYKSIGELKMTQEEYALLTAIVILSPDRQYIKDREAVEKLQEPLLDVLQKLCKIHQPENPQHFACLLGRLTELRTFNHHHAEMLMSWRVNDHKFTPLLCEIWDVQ
The following applies: cited from earlier work.

Data set [1] relates to non-alcoholic fatty liver disease (非酒精性脂肪性肝病(NAFLD)). The following applies: phase IIa clinical study; cited from earlier work.
In data set [2] the test system is non-alcoholic hepatitis (非酒精性肝炎(NASH)). To be noted: phase IIb study, 72 weeks of treatment; cited from earlier work.
For data set [3] the following is noted: phase III clinical study; cited from earlier work.
For data set [4] the following is noted: clinical studies; cited from earlier work.
Data set [5] has as its system non-alcoholic fatty liver model mice (非酒精性脂肪肝模型小鼠). Put plainly: Improvement of non-alcoholic fatty liver in NASH model mice (Western diet + CCl4), HE staining of liver. Format: in vivo, C57BL/6 mouse. The following applies: 10 mg/kg, gavage, once daily, 4 weeks; compared with obeticholic acid 20 mg/kg.

Turning to `CC[C@H]1[C@@H](O)[C@@H]2[C@H](CC[C@]3(C)[C@@H]([C@H](C)CCC(=O)O)CC[C@@H]23)[C@@]2(C)CC[C@@H](O)C[C@@H]12` [奥贝胆酸], the “FXR receptor agonist activity compared with the endogenous ligand CDCA” value at FXR receptor (FXR受体) is “比内源性配体CDCA活性更高”. Further, in data set [1], the insulin sensitivity result is “有显著改善” and the other metabolic effects result was “有益作用”. For the same compound, the “histopathology of NASH” value in data set [2] is recorded as “对非酒精性肝炎(NASH)的组织病理学的改进也有益”. The “liver fibrosis, histological features of steatohepatitis and liver biochemical indicators” value in data set [3] is reported as “可以改善肝纤维化、脂肪性肝炎的组织学特征以及肝脏的生化指标”. In data set [4], the side effects result is recorded as “严重的瘙痒、肝毒性、心血管风险等副作用”.

`CC(C)c1onc(-c2ccccc2OC(F)(F)F)c1CN1CCC(COc2ccc(C(=O)O)cc2)CC1` [I-9, 4-(1-(5-异丙基-3-(2-三氟甲氧基苯基)异恶唑-4-甲基)哌啶-4-甲氧基)苯甲酸]: in data set [5], the ballooning entry was “得到更明显的改善”, the “degree of hepatic steatosis” value was “得到更明显的改善”, the “improvement of non-alcoholic fatty liver” value is on record as “明显优于奥贝胆酸” and the inflammatory infiltration result is recorded as “得到更明显的改善”.
